Reference: the NIST ThermoML archive (doi:10.1021/je060107n)
Numbers after ± are expanded uncertainties.

Assay: mn = molality of the nth substance listed, in mol/kg
Details: 101 kPa, Liquid; for viscosity: Capillary tube (Ostwald / Ubbelohde) method; for speed of sound: Linear variable-path acoustic interferometer

CC(=O)[O-].CC(=O)[O-].[Mg+2] [magnesium acetate] + O
Details	speed of sound, 273.15 K [m/s]	speed of sound, 278.15 K [m/s]	speed of sound, 283.15 K [m/s]	speed of sound, 288.15 K [m/s]	viscosity, 273.15 K [mPa·s]	viscosity, 278.15 K [mPa·s]	viscosity, 283.15 K [mPa·s]	viscosity, 288.15 K [mPa·s]	viscosity, 293.15 K [mPa·s]
m1 = 0.0414	1411.1 ± 1.8	1433.9 ± 1.9	1453.9 ± 1.9	1471.7 ± 1.9	1.895 ± 0.026	1.603 ± 0.022	1.374 ± 0.019	1.196 ± 0.016	1.052 ± 0.014
m1 = 0.0831	1421.7 ± 1.9	1443.6 ± 1.9	1464.2 ± 1.9	1481.5 ± 1.9	1.974 ± 0.027	1.663 ± 0.023	1.423 ± 0.02	1.238 ± 0.017	1.089 ± 0.015
m1 = 0.1671	1435.8 ± 1.9	1458.6 ± 1.9	1477 ± 1.9	1494.1 ± 1.9	2.142 ± 0.03	1.805 ± 0.025	1.54 ± 0.021	1.335 ± 0.018	1.17 ± 0.016
m1 = 0.4247	1486.1 ± 1.9	1504.5 ± 1.9	1522.7 ± 1.9	1535.1 ± 1.9	2.763 ± 0.04	2.301 ± 0.033	1.954 ± 0.027	1.677 ± 0.023	1.461 ± 0.02
m1 = 0.646	1523.6 ± 1.9	1539.4 ± 1.9	1553.8 ± 1.9	1566.5 ± 1.9	3.52 ± 0.05	2.887 ± 0.042	2.444 ± 0.034	2.072 ± 0.029	1.788 ± 0.024
m1 = 0.8751	1563.5 ± 1.9	1571.6 ± 1.9	1584.2 ± 1.9	1601.1 ± 1.9	4.302 ± 0.064	3.533 ± 0.051	2.956 ± 0.042	2.499 ± 0.035	2.15 ± 0.029
m1 = 1.106	1599.6 ± 1.9	1611.8 ± 1.9	1622.1 ± 1.9	1631.4 ± 1.9	5.537 ± 0.081	4.511 ± 0.066	3.725 ± 0.053	3.138 ± 0.044	2.678 ± 0.037
m1 = 1.354	1633.9 ± 1.9	1644.1 ± 1.9	1651.4 ± 2	1659.4 ± 2	7.125 ± 0.093	5.709 ± 0.085	4.687 ± 0.068	3.895 ± 0.055	3.294 ± 0.046
m1 = 1.608	1670.3 ± 2	1679.6 ± 2	1685.9 ± 2	1692.8 ± 2	7.125 ± 0.15	5.709 ± 0.085	4.687 ± 0.068	3.895 ± 0.055	3.294 ± 0.046
m1 = 1.866	1705.9 ± 2	1713 ± 2	1718.2 ± 2	1722.3 ± 2	12.12 ± 0.17	9.522 ± 0.15	7.615 ± 0.11	6.192 ± 0.09	5.143 ± 0.073
m1 = 2.134	1742.2 ± 2	1746.8 ± 2	1750.4 ± 2	1752.7 ± 2	16.35 ± 0.27	12.57 ± 0.2	9.905 ± 0.15	8.005 ± 0.12	6.573 ± 0.095
m1 = 2.411	1777.1 ± 2	1780.1 ± 2	1781.4 ± 2	1782.9 ± 2	23.36 ± 0.36	17.59 ± 0.29	13.67 ± 0.21	10.8 ± 0.16	8.745 ± 0.13
m1 = 2.622	1797.1 ± 2	1799.2 ± 2	1799.1 ± 2	1799.1 ± 2	28.17 ± 0.48	21.2 ± 0.35	16.25 ± 0.26	12.79 ± 0.2	10.25 ± 0.15
m1 = 3.043	1840.9 ± 2.1	1839.8 ± 2.1	1838.2 ± 2.1	1835.6 ± 2.1	45.46 ± 0.99	33.22 ± 0.58	24.92 ± 0.41	19.07 ± 0.3	–
m1 = 3.437	1885.2 ± 2.1	1881.6 ± 2.1	1877.4 ± 2.1	1872.2 ± 2.1	85.35 ± 1.8	59.47 ± 1.1	43.12 ± 0.76	31.95 ± 0.54	–
m1 = 3.819	1910.1 ± 2.1	1903.6 ± 2.1	1897.9 ± 2.1	1891.9 ± 2.1	–	–	–	–	–
m1 = 4.001	–	–	–	–	167.7 ± 5.4	110.6 ± 2.6	77.03 ± 1.5	55.77 ± 0.97	–
m1 = 4.547	1953.7 ± 2.2	1945.3 ± 2.2	1936.1 ± 2.2	1927.4 ± 2.1	–	–	–	–	–
m1 = 4.563	–	–	–	–	374.7 ± 14	234.4 ± 7.8	153.7 ± 4.1	105.5 ± 2.3	–
m1 = 4.929	–	–	–	–	–	–	208.4 ± 5.9	140.3 ± 3.6	–
m1 = 5.165	–	–	1964.1 ± 2.2	1953.3 ± 2.2	–	–	–	–	–
